We go through eight compounds from PubChem BioAssay (NCI).

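Each compound was tested at five concentrations against cells in 96-well plates for 48 hours. GI50: concentration for 50% inhibition of growth. TGI denotes the concentration required for complete inhibition of growth.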

Test in all cases: growth of human tumour cells (NCI), 48 h
For assay [1], the system named is CAKI-1 renal.
Assay [2] has as its system OVCAR-3 ovarian.
Assay [3] relates to HCC-2998 colon.
Assay [4] relates to SF-268 CNS.
Assay [5] has as its system RPMI-8226 leukemia.
For assay [6], the system named is UACC-257 melanoma.
Assay [7] deals with HCT-116 colon.
Assay [8] has as its system RXF 393 renal.
Assay [9] relates to SK-MEL-2 melanoma.
For assay [10], the system named is SK-MEL-5 melanoma.

As for `Cc1cnc(Nc2ccc(N3CCN(C)CC3)cc2)nc1Nc1ccc(Cl)c(NS(=O)(=O)C(C)(C)C)c1`, the GI50 is 0.0621 µM in [1]; 0.324 µM in assay [2]; 0.383 µM in [3]; 0.474 µM in assay [4]; 0.136 µM in [5]; 1.36 µM in assay [6]. Further, the GI50 in [7] is 0.0917 µM; in [8], 0.136 µM; in assay [9], 0.31 µM; in assay [10] it was 0.312 µM. Further, the TGI in assay [1] stood at 2.09 µM; in assay [2], 2.93 µM; in assay [3], 1.84 µM; in assay [4] it was 3.54 µM; in assay [5], 1.31 µM; in assay [6], 2.88 µM. In addition, the TGI in [7] was determined as 2.73 µM; in [8], 0.959 µM; in [9] it was 3.76 µM; in assay [10], 1.51 µM.
Regarding `COc1cc(/C=C/c2cc(/C=C/c3ccc(O)c(OC)c3)n(C(=O)Nc3ccc(Cl)cc3)n2)ccc1O`, the GI50 in [1] was 0.401 µM; in assay [2], 0.329 µM; in assay [3] it was 1.68 µM; in assay [4] it was 0.58 µM; in assay [5], 0.376 µM; in assay [6] it was 1.26 µM. In addition, the GI50 in assay [7] was 0.354 µM; in assay [8] it was 0.261 µM; in [9], 0.403 µM; in assay [10], 0.306 µM. Further, the TGI in assay [1] amounted to 36.6 µM; in [2], 1.07 µM; in [3], 6.01 µM; in [4], 4.2 µM; in assay [5] it was 2.48 µM; in assay [6], 6.81 µM. Also, the TGI was 2.54 µM in assay [7], 0.789 µM in assay [8], 2.01 µM in assay [9] and 1.25 µM in assay [10].
Regarding `C/C=C/COC(=O)CO[N+](=O)[O-]`, the TGI in [1], in assay [2], in assay [3], in [4], in assay [5] and in [6] was > 100 µM in each case. Moreover, the TGI in assay [7], in [8] and in assay [9] was > 100 µM in each case.
Turning to `Cc1ccc(C)c(NC(=O)CC2SC(=Nc3ccccc3Cl)NC2=O)c1` (stereo unspecified), the TGI in assay [1], in [2], in assay [3], in assay [4], in assay [6] and in [7] was > 100 µM each time. Also, the TGI in [8], in assay [9] and in assay [10] was > 100 µM in each case.
Consider `CN(C)CCNC(=O)c1cccc2ccc(-c3ccc(-c4ccccc4)cc3)nc12`, for which the TGI in assay [1] worked out at 11 µM; in [2] it was 12 µM; in assay [3], 3.3 µM; in assay [4], 10.4 µM; in assay [6] it was 3.58 µM; in assay [7] it was 3.4 µM. The TGI worked out at 6.15 µM in [8], 32.7 µM in assay [9] and 3.1 µM in assay [10].
Turning to `c1ccc(P(=C2c3ccccc3-c3ccccc32)(c2ccccc2)c2ccccc2)cc1`, the TGI in [1] was > 100 µM; in assay [2] it was 6.13 µM; in assay [3] it was 15.3 µM; in [4], 69 µM; in [6], 27.3 µM; in [8], 93.8 µM. The TGI in [9] amounted to 23.5 µM; in [10], 3.96 µM.
Take `Cc1cc(Cl)ccc1Nc1nc(C(F)(F)F)ccc1C(=O)N/N=C/c1ccccc1Cl`: the GI50 was 2.82 µM in assay [1]; 0.239 µM in [2]; 1.34 µM in assay [3]; 0.811 µM in [4]; 2.24 µM in [6]; 0.439 µM in assay [7]. Also, the GI50 was 1.48 µM in assay [8], 3.22 µM in assay [9] and 1.39 µM in assay [10]. Also, the TGI in assay [1] was 7.72 µM; in assay [2], 2.15 µM; in [3] it was > 100 µM; in assay [4], 6.05 µM; in assay [6], 10.2 µM; in [7], 3.18 µM. In addition, the figures for the TGI in assay [8], in assay [9] and in [10] were 4.41 µM, 18.8 µM and 3.51 µM, respectively.
Consider `COc1cccc(/C(C)=N/NC(=O)CSc2nc3ccccc3c(=O)n2CCc2ccc(S(N)(=O)=O)cc2)c1`, for which the GI50 is 3.7 µM in assay [1]; 2.32 µM in assay [2]; 24 µM in assay [3]; 2.68 µM in assay [4]; 0.943 µM in assay [5]; 10.9 µM in assay [6]. The GI50 is 2.71 µM in assay [8], 3.42 µM in assay [9] and 2.03 µM in assay [10]. Besides, the TGI in [1] was 15.4 µM; in assay [2], 4.8 µM; in assay [3], 62.9 µM; in assay [4], 7.32 µM; in assay [5] it was > 100 µM; in [6], 36.7 µM. Further, the results for the TGI in assay [8], in [9] and in [10] were 7.7 µM, 16.3 µM and 4.24 µM, respectively.
